The record followed here is patent US5480899A, “Oxazolidine derivatives and pharmaceutically acceptable salts thereof” (Taiho Pharmaceutical Co., Ltd., priority 1992, dated 1996).

Test [1] has as its system fatty acid biosynthesis system (rat liver slices). Nature of the test: Effects on fatty acid biosynthesis in rat liver slices ([1-14C] acetic acid incorporation). Format: cell-based, male Wistar rat. Conditions: 37° C., 2 hours, radioactivity of fatty acid fraction vs control. As to the method: (§1) Effects on sterol and fatty acid biosynthesis systems obtained from a rat liver slices
(§2) Pharmacological tests were carried out according to the procedure mentioned below, referring to the following document: Endo, A., Tsujita, Y., Kuroda, M. and Tanzawa, K., Eur. J. Biochem., 77, 31-36 (1977).
(§3) The liver was extirpated from a male Wistar rat (body weight: about 200 g) immediately after sacrifice by decapitation, and sufficiently perfused with ice-cold Krebs-Ringer bicarbonate buffer solution. The liver slices (100 mg) were added to 1 ml of Krebs-Ringer bicarbonate buffer solution containing [1-^14 C] acetic acid (2 μci/μmol) and one of test compounds adjusted to various concentrations, and the reaction was carried out at 37° C. for 2 hours in 95% O2 -5% CO2 gas mixture. After cooling the reaction mixture, 2 ml of petroleum ether was added thereto to extract the sterol fraction with shaking. The extract was concentrated and 1 ml of 1% digitonin solution was added thereto. After standing, the mixture was centrifuged. The sterol fraction obtained as the sediment was washed several times with an organic solvent and dissolved in 1 ml of acetic acid. Subsequently, radioactivity of the sterol fraction was measured. Then the concentration of the test compound (IC50) was determined at which the radioactivity was inhibited by 50% compared with the radioactivity observed in the control group wherein the test compounds were not used.
In a similar manner, the radioactivity of fatty acid fraction was determined which was obtained by treating, with hydrochloric acid, the lower layer of the petroleum ether mentioned in the above procedure.

Test [2] deals with sterol biosynthesis system (rat liver slices). Nature of the test: Effects on sterol biosynthesis in rat liver slices ([1-14C] acetic acid incorporation). The class given is cell-based, male Wistar rat. The following applies: 37° C., 2 hours, radioactivity of sterol fraction vs control. As to the method:
as §1, §2, §3

Test [3] deals with serum lipid (triglyceride and cholesterol). Nature of the test: Rate of decrease in serum lipid (triglyceride and cholesterol) in rats after 14-day oral administration. Format: in vivo, male Sprague-Dawley rats. Conditions: 300 mg/kg orally everyday for 14 days; 24 hours after last administration; vs control group (0.5% HPMC). On the procedure: Male Sprague-Dawley rats (body weight: about 130 g) were preliminarily bred for one week, and divided into groups, each group consisting of five rats. Each of the test compounds was suspended in a 0.5% hydroxy-propylmethylcellulose (HPMC) aqueous solution, and the suspensions were orally administered to the rats at a dose of 300 mg/kg at 9:00 a.m. everyday for 14 days. […] The blood was allowed to stand and centrifuged to obtain serum. Lipid (triglyceride and cholesterol) in the obtained serum was measured by the enzymic method using an autoanalyzer.
Pharmacological activities of the test compounds were determined as the rate of decrease (%) in serum lipid compared with the control group to which only 0.5% aqueous HPMC solution was administered.

As a reminder, the IC50 is the concentration that gives 50% inhibition. In the case of `Cc1ccc(CN2CC(COc3ccc(C(=O)O)cc3)OC2=O)cc1` (stereo not drawn) [Compound 130], the IC50 in test [1] turned out to be 14.8 µM; in test [2] it was 29.5 µM.
On the same counts, the results for `O=C(O)c1ccc(OCC2CN(c3ccc([N+](=O)[O-])cc3)C(=O)O2)cc1` (stereo not drawn) [Compound 81, 4-[3-(4-nitrophenyl)-2-oxooxazolidin-5-yl]methoxybenzoic acid] are 1.3 µM and 3.79 µM.
On the same counts, the results for `Cc1ccc(N2CC(COc3ccc(C(=O)O)cc3)OC2=O)cc1` (stereo not drawn) [Compound 83] are 2.89 µM and 5.74 µM.
`O=C(O)c1ccc(OCC2CN(c3ccc(C(F)(F)F)cc3)C(=O)O2)cc1` (stereo not drawn) [Compound 101]: the IC50 in test [1] stood at 3.17 µM; in test [2], 4.8 µM.
Consider `O=C(O)c1ccc(OCC2CN(c3ccc(OC(F)(F)F)cc3)C(=O)O2)cc1` (stereo not drawn) [Compound 108], for which, in test [3], the “Rate of decrease in total cholesterol in serum” value stood at 50.4% and the “Rate of decrease in triglyceride in serum” value was determined as 83.0%.
On the same counts, the results for `O=C(O)c1ccc(OCC2CN(c3ccc(Cl)cc3Cl)C(=O)O2)cc1` (stereo not drawn) [Compound 98] are 26.8% and 65.5%.
For `O=C(O)/C=C/c1ccc(OCC2CN(c3ccc(Cl)cc3)C(=O)O2)cc1` (stereo not drawn) [Compound 183], the figures for the IC50 in test [1] and in test [2] were 5.7 µM and 17.4 µM, respectively.
In the same order, the values of `O=C1OC(COc2ccc(CCCO)cc2)CN1c1ccccc1` (stereo not drawn) [Compound 195, 3-[4-(3-phenyl-2-oxooxazolidin-5-yl)methoxyphenyl]propyl alcohol] are 7.3 µM and 23.2 µM.
Regarding `O=C(O)CCc1ccc(OCC2CN(c3ccc(Cl)cc3)C(=O)O2)cc1` (stereo not drawn) [Compound 193], the results for the IC50 in test [1] and in test [2] were 3.8 µM and 16.4 µM, respectively.
Take `O=C1OC(COc2ccc(CCCO)cc2)CN1c1ccc(Cl)cc1` (stereo not drawn) [Compound 194, 3-{4-[3-(4-chlorophenyl)-2-oxooxazolidin-5-yl]methoxyphenyl}propyl alcohol]: the IC50 amounted to 4 µM in test [1] and 4.8 µM in test [2].
In the same order, the values of `O=C(O)c1ccc(OCC2COC(=O)N2c2ccccc2)cc1` (stereo not drawn) [Compound 180, 4-(3-phenyl-2-oxooxazolidin-4-yl)methoxybenzoic acid] are 33.7 µM and 7.1 µM.
For `O=C(O)c1ccc(OC[C@@H]2CN(c3ccc(Cl)cc3)C(=O)O2)cc1` [Compound 165], the IC50 in test [1] worked out at 1.09 µM; in test [2], 1.15 µM.
On the same counts, the results for `COc1ccc(N2C[C@@H](COc3ccc(C(=O)O)cc3)OC2=O)cc1` [Compound 164] are 1.23 µM and 0.84 µM.
In the same order, the values of `O=C(O)c1ccc(OC[C@H]2CN(c3ccc(C(F)(F)F)cc3)C(=O)O2)cc1` [Compound 147] are 4.78 µM and 8.08 µM.
On the same counts, the results for `Cc1ccc(N2CC(COc3ccc(CO)cc3)OC2=O)cc1` (stereo not drawn) [Compound 175, 4-[3-(4-tolyl)-2-oxooxazolidin-5-yl]methoxybenzyl alcohol] are 2.7 µM and 4.8 µM.
As for `COc1ccc(N2CC(COc3ccc(C=O)cc3)OC2=O)cc1` (stereo not drawn) [Compound 1, 4-[3-(4-methoxyphenyl)-2-oxooxazolidin-5-yl]methoxybenzaldehyde], the IC50 in test [1] came to 5.6 µM; in test [2] it was 10.2 µM.
Take `O=C(O)c1ccc(OCC2CN(c3ccc(Br)cc3F)C(=O)O2)cc1` (stereo not drawn) [Compound 100]: in test [3], the “Rate of decrease in total cholesterol in serum” value is 32.4% and the “Rate of decrease in triglyceride in serum” value is 62.9%.
Regarding `O=Cc1ccc(OCC2CN(c3ccc(Br)cc3F)C(=O)O2)cc1` (stereo not drawn) [Compound 8], the IC50 was 2.9 µM in test [1] and 6.4 µM in test [2].
On to `O=C(O)c1ccc(OCC2CN(c3ccc(Br)cc3)C(=O)O2)cc1` (stereo not drawn) [Compound 93], for which the IC50 in test [1] was 1.55 µM; in test [2], 3.23 µM.
On the same counts, the results for `O=C(O)c1ccc(OCC2CN(c3ccccc3)C(=S)O2)cc1` (stereo not drawn) [Compound 171, 4-(3-phenyl-2-oxazolidinethion-5-yl)methoxybenzoic acid] are 9.81 µM and 34.5 µM.
On the same counts, the results for `O=C(O)c1ccc(OC[C@H]2CN(c3ccc(Cl)cc3)C(=O)O2)cc1` [Compound 149] are 1.99 µM and 3.36 µM.
